Experimental data from ChEMBL document CHEMBL5724562, “Toxicity screen in isolated B cell assay results for EUbOPEN Chemogenomics Library” (2024).
Positions of bridges follow the written chain, without caps; N, C: chain ends. Non-standard residues stand in square brackets, D forms with d. Residues, ends and D or L forms follow the SMILES beside them. *: point of attachment. dPhe(4-NHCONH2) = NC(=O)Nc1ccc(C[C@@H](N)C(=O)O)cc1; Dihydroorotyl(S) = O=C1C[C@@H](C(=O)*)NC(=O)N1; dPhe(4-Cl) = N[C@H](Cc1ccc(Cl)cc1)C(=O)O; Phe(4-NH2) = Nc1ccc(C[C@H](N)C(=O)O)cc1; d2Nal = N[C@H](Cc1ccc2ccccc2c1)C(=O)O; Lys(iPr) = CC(C)NCCCC[C@H](N)C(=O)O; d3Pal = N[C@H](Cc1cccnc1)C(=O)O; Orn = NCCC[C@H](N)C(=O)O; Mpa = O=C(O)CCS

What follows are molecules tested on B cell (assay: Cytotoxicity screening of chemical probes in isolated B cell assay. Data is normalized to DMSO control, the cell viability average of replicates are reported. Reduction of ATP level more than 20% indicate compromised cell health status.). Conditions: human, 0.1 µM.

Row | Structure (SMILES) | Cell Viability [%]
1 | CNC(=O)Nc1ccc2c(c1)CC[C@@]21OC(=O)N(CC(=O)N(Cc2ccc(F)cc2)[C@@H](C)C(F)(F)F)C1=O [A-485] | 92.4439
2 | CCCOc1ccc([C@H]2[C@H](C(=O)O)[C@@H](c3ccc4c(c3)OCO4)CN2CC(=O)Nc2c(CC)cccc2CC)cc1 [A-192621] | 97.3784
3 | O[C@]1(C(F)(F)F)CCCC[C@H]1Nc1ccc(F)cc1 [BAY-390] | 101.834
4 | Cc1c[nH]c2nccc(Oc3c(F)cc(Nc4cc(Cl)nc(N)n4)cc3F)c12 [BAY-549] | 99.4175
5 | O=C(NCc1ncc(C(F)(F)F)cc1Cl)c1ccc2c(c1)C1(CCS(=O)(=O)CC1)[C@H](C1CC1)N2S(=O)(=O)c1ccc(F)cc1 [BAY-784] | 98.8405
6 | Cc1cc(C)c(-n2ccn3nc(-c4cccnc4)cc23)cc1NC(=O)c1cc(C#N)cc(S(F)(F)(F)(F)F)c1 [BAY-826] | 99.8561
7 | O=C(O)[C@H]1[C@H](Cn2nnc3ccccc3c2=O)CC[C@@H]1C(=O)c1ccc(OCCC2CCOCC2)cc1 [BAY-7598] | 98.8077
8 | CCOC(=O)c1cc2cc(-c3cc(C(=O)NCc4ccc(C(=O)O)cc4)nn3C)ccc2[nH]1 [BI 4394] | 99.7292
9 | CN(C)C(=O)Cn1cc(-c2nc([C@@](C)(c3ccc(-c4cnc(N)nc4)cc3)C3CC3)no2)cn1 [BI 665915] | 103.286
10 | CNC(=O)c1ccc(Nc2ncc(C(F)(F)F)c(NCc3nccnc3N(C)S(C)(=O)=O)n2)cc1 [DEFACTINIB] | 103.534

Same assay, conditions: human, 1 µM

Row | Structure (SMILES) | Cell Viability [%]
11 | O=C(O)CNC(=O)c1c(O)c2ccccc2n(Cc2ccccc2)c1=O | 96.2966
12 | Cc1cc(=O)n(C)c2cc(N3C(=O)CC[C@H](NS(=O)(=O)CC(C)C)[C@H]3c3ccc(Cl)cc3)ccc12 | 97.6321
13 | CCN(C(=O)CO)[C@H]1CN(/C(=N\C#N)Nc2cccc(OC(F)F)c2)N=C1c1ccc(Cl)c(Cl)c1 | 100.495
14 | CC1(C)C(N)=Nc2cc(OCCCN3Cc4ccc(OCCc5cn(CC(=O)N6CCC(CCN7CCCC7)CC6)nn5)cc4C3)c(OCC3CC3)cc21 | 92.0303
15 | CN(C)CCCOc1ccc(-c2cc(NCCCn3cccn3)nc(S(C)(=O)=O)n2)cc1 | 98.5143
16 | Cn1cc(-c2ccc3occ(-c4cccc(-c5ccncc5)c4)c3n2)cn1 | 101.775
17 | Cc1cc(C)cc([C@@H]2c3cc(C)ccc3NC(=O)CN2C(=O)c2ccc(Br)s2)c1 | 95.4438
18 | COc1cc(C(=O)N2CC[C@@H](O)[C@@H](N)C2)cc2nc(-c3cc4ccccc4n3CC3CC3)n(C)c12.Cl | 96.5784
19 | CCC(=O)Nc1cc(Nc2cc(NC3CC3)n3ncc(C#N)c3n2)ccc1C | 88.1167
20 | CCCn1c(=O)c2[nH]c(C3CCCC3)nc2n(CCC)c1=O [1,3-DIPROPYL-8-CYCLOPENTYLXANTHINE [DPCPX]] | 101.399
21 | CN(C)[C@@H]1CCN(c2cc(-c3ccccc3)nc3ccnn23)C1 [(R)-ZINC-3573] | 100.756
22 | CN(C)CC#Cc1ccc(OCCCc2sc(N3CCc4cccc(C(=O)Nc5nc6ccccc6s5)c4C3)nc2C(=O)O)c(F)c1 [A-1155463] | 88.7648
23 | CO[C@H]1CC[C@H](CNc2ccc(S(=O)(=O)NC(=O)c3ccc(N4CCN(CC5=C(c6ccc(Cl)cc6)CC(C)(C)CC5)CC4)cc3Oc3cnc4[nH]ccc4c3)cc2[N+](=O)[O-])CC1 [A-1211212] | 88.4422
24 | COc1ccc2c(c1)O[C@@H](c1ccc(OC)c(OC)c1)C[C@H]2NC(=O)C1(c2ccc3c(c2)OC(F)(F)O3)CC1 [A-1596586] | 101.385
25 | Cc1[nH]cnc1CN1CCc2c(c3ccccc3n2C)C1=O [ALOSETRON] | 98.6661
26 | COC(c1ccccc1)(c1ccccc1)[C@H](Oc1nc(C)cc(C)n1)C(=O)O [AMBRISENTAN] | 104.904
27 | C[C@@H](O[C@H]1OCCN(Cc2n[nH]c(=O)[nH]2)[C@H]1c1ccc(F)cc1)c1cc(C(F)(F)F)cc(C(F)(F)F)c1 [APREPITANT] | 101.584
28 | CCOc1ccc(C[C@H]2NC(=O)CCSSC[C@@H](C(=O)N3CCC[C@H]3C(=O)N[C@@H](CCCN)C(=O)NCC(N)=O)NC(=O)[C@H](CC(N)=O)NC(=O)[C@H]([C@@H](C)O)NC(=O)[C@H]([C@@H](C)CC)NC2=O)cc1 [ATOSIBAN] ([Mpa][dY](Et)ITNCP[Orn]G-NH2; disulfide 1-6) | 101.789
29 | Cc1ccccc1Oc1cc(-n2c(=O)cc(C(F)(F)F)[nH]c2=O)c2ccccc2c1Cl [BAY-069] | 101.552
30 | CNCc1ccccc1-c1csc([C@@H](C)Nc2nc(C)nc3cc(OC)c(OC)cc23)c1 [BAY-293] | 78.8725
31 | O=C(N1CCS(=O)(=O)CC1)N1C[C@H](c2ccc(OC(F)(F)F)cc2)C[C@H](c2nc(C3CC3)no2)C1 [BAY-386] | 95.9614
32 | CC1=C(C#N)C(c2ccc3[nH]nc(C)c3c2)C(C#N)=C(C)N1 [BAY-474] | 96.499
33 | CC(=O)C1=C(C)N(c2cccc(C(F)(F)F)c2)C(=O)N[C@@H]1c1ccc(C#N)nc1 [BAY-678] | 97.287
34 | Cc1c(NC(=O)c2cc(C(N)=O)nc3cc(F)ccc23)c(C(F)(F)F)nn1Cc1ccc(C#N)cc1 [BAY-876] | 101.62
35 | CN1CCN(c2cnc3c(C4CCN(C(=O)c5ccc(OC(F)(F)F)cc5N)CC4)ncnc3c2)CC1 [BAY-885] | 96.4414

Row | Structure (SMILES) | Cell Viability [%]
36 | O=C(Nc1cnc(Oc2ccc(F)cc2)nc1)N1CCc2ncccc2[C@@H]1c1ccc(F)cc1 [BAY-899] | 98.9586
37 | C[C@H](c1ccnc(Nc2nc3ccc(-c4cc(N(C)C)ncn4)cc3[nH]2)c1)N1CCN(C(=O)CC(F)(F)F)CC1 [BAY-985] | 78.1838
38 | NS(=O)(=O)c1cc(NC(=O)Cc2ccccc2)ccc1Oc1cccc(Cl)c1 [BAY-1797] | 95.6935
39 | CCc1ccccc1C(=O)Nc1n[nH]c2c(C)c(F)c(C3C(C#N)=C(C)N(C)C(C)=C3C#N)cc12 [BAY-3827] | 97.1659
40 | Cc1c(N2CCCC2)nc2ccc(Br)cc2c1C(=O)NC[C@H](CCC(=O)O)c1ccccc1Cl [BAY-6672] | 98.0293
41 | COc1ccc2c(O[C@@H]3C[C@H]4C(=O)N[C@]5(C(=O)O)CC5/C=C\CCCCC[C@H](NC(=O)OC5CCCC5)C(=O)N4C3)cc(-c3csc(NC(=O)C(C)C)n3)nc2c1C (stereo not given in full) [BI 1230] | 99.1645
42 | CCOCCn1cc(C(=O)Nc2ccc(-n3nc(-c4cccnc4)cc3C(F)(F)F)cn2)ccc1=O [BI 1935] | 94.8333
43 | C[C@H](NC(=O)c1cnc2n1[C@](C)(Cc1ccc(C#N)cc1)C(=O)N2c1cc(Cl)c(F)c(Cl)c1)C(=O)NC1(c2ccccn2)CC1 [BI 1950] | 96.273
44 | O=C(NC[C@@H]1[C@H]2CN(C(=O)OCc3cc(C(F)(F)F)cc(C(F)(F)F)c3)C[C@@H]12)c1ccc2[nH]nnc2c1 [BI 2545] | 100.102
45 | CC(=O)N1CCC(c2ccc(C(=O)NC(=N)N)cc2C(F)(F)F)CC1 [BI 9627] | 95.0864
46 | CCC(=O)N[C@H]1CC[C@@H](C(=O)N(C)c2ccc(-c3nc4ccccc4o3)cc2)C1 [BI 99179] | 102.234
47 | CC(C)C[C@@H]1NC(=O)[C@@H](C(C)C)NC(=O)[C@@H]2CCCN2C(=O)[C@@H](CC(=O)O)NC(=O)[C@@H](Cc2c[nH]c3ccccc23)NC1=O [BQ-123] (cyclo(L[dW][dD]P[dV])) | 98.787
48 | O=c1nc(-c2ccccn2)sc2ccccc12 [BTZO-1] | 96.3183
49 | C[C@@H]1CN(Cc2ccc(F)cc2)CCN1C(=O)COc1ccc(Cl)cc1NC(N)=O [BX 471 FREE BASE] | 91.1693
50 | CCN(CCO)CCCOc1ccc2c(Nc3cc(CC(=O)Nc4cccc(F)c4)[nH]n3)ncnc2c1 [DEFOSBARASERTIB] | 100.387
51 | CC(=O)N[C@H](Cc1ccc2ccccc2c1)C(=O)N[C@H](Cc1ccc(Cl)cc1)C(=O)N[C@H](Cc1cccnc1)C(=O)N[C@@H](CO)C(=O)N[C@@H](Cc1ccc(NC(=O)[C@@H]2CC(=O)NC(=O)N2)cc1)C(=O)N[C@H](Cc1ccc(NC(N)=O)cc1)C(=O)N[C@@H](CC(C)C)C(=O)N[C@@H](CCCCNC(C)C)C(=O)N1CCC[C@H]1C(=O)N[C@H](C)C(N)=O [DEGARELIX] (Ac-[d2Nal][dPhe(4-Cl)][d3Pal]S[Phe(4-NH2)](Dihydroorotyl(S))[dPhe(4-NHCONH2)]L[Lys(iPr)]P[dA]-NH2) | 102.434
52 | O=C(O)Cc1ccccc1Nc1c(Cl)cccc1Cl [DICLOFENAC] | 103.39
53 | C[C@]12N[C@H](Cc3ccccc31)c1ccccc12 [DIZOCILPINE] | 102.296
54 | C[C@@H](NC(=O)Nc1cc2[nH]ncc2c(CO)n1)c1ccccc1 [ERKi] | 88.9841
55 | O=C(NCCN1CCOCC1)c1ccc2c(c1)C(=O)c1ccc(Nc3ccc(F)c(NC(=O)c4ccccc4)c3)cc1CC2 [FS-694] | 91.9931
56 | CC(=O)Nc1c(F)cc(C(=O)N[C@H]2CC[C@H](O)CC2)cc1O[C@@H](C)c1ccccc1 [GSK046] | 96.5866
57 | CNC(=O)c1cc(C(=O)NC2CC2)cn(Cc2ccccc2)c1=O [GSK620] | 102.307
58 | COCc1nc2cnc3cc(-c4c(C)noc4C)c(OC[C@H]4CCNC4)cc3c2n1[C@H](C)c1ccccc1 [GSK778] | 95.4048
59 | Cc1cc2c(-c3ccco3)cnc(N[C@@H]3CCN(C)C[C@H]3C(=O)NC3CCCCC3)c2[nH]c1=O [GSK789] | 93.8199

Same assay, conditions: human, 2 µM

Row | Structure (SMILES) | Cell Viability [%]
60 | CS(=O)(=O)c1cc(C2(NC(=O)c3cncc4c3cnn4-c3ccc(F)cc3)CC2)ccn1 [BI 639667] | 99.2983
